# Measurements published in patent US20100204263A1, “METHOD OF TREATING MULTIDRUG RESISTANT CANCERS” (priority 2007, published 2010).
# Like-named read-outs stand apart in the source and are kept apart here.
# How the values were obtained:
# [1] = system: K562 (human leukemia) cell lines and a K562 cell line selected for resistance to daunorubicin; test: MTS cell proliferation assay, K562 and K562 resistant cell lines; assay type: cell-based
# Text: MTS assay is an assay in which the bioreduction of the MTS reagent (3-(4,5-dimethylthiazol-2-yl)-5-(3-carboxymethoxyphenyl)-2-(4-sulfophenyl)-2H-tetrazolium)) by cells is being measured to assess metabolic activity of cells is based on the ability of a mitochondrial dehydrogenase enzyme from viable cells to cleave the tetrazolium rings of the MTS and form formazan crystals which are largely impermeable to cell membranes, thus resulting in its accumulation within healthy cells. Solubilization of the cells by the addition of a detergent results in the liberation of the crystals which are solubilized. The number of surviving cells is directly proportional to the level of the formazan product created. The color can then be quantified using a simple colorimetric assay. The results can be read on a multiwell scanning spectrophotometer (ELISA reader).
# [2] = system: IGROV1 (human ovarian) cell line; test: SRB cell proliferation assay, IGROV1; assay type: cell-based
# Method: (§1) The T8 resistant cell line has been characterized with over-expression of the multidrug resistant protein BCRP (breast cancer resistance protein). Topotecan, which is a known substrate for BCRP, was used as a control.
# (§2) Sulforhodamine-B (SRB) assay is performed to assess cell survival. SRB is a water-soluble dye that binds to the basic amino acids of the cellular proteins. Thus, colorimetric measurement of the bound dye provides an estimate of the total protein mass that is related to the cell number. The color can then be quantified using a simple colorimetric assay. The results can be read on a multiwell scanning spectrophotometer (ELISA reader).
# [3] = system: HL60 (human promyelocytic leukemia) cells; test: WST-1 cell proliferation assay, HL60; assay type: cell-based; details: HL-60, wild-type HL60, WST-1, read-out: IC50 HL60
# Method: (§3) The HL60NCR resistant cell line has been characterized with over-expression of the multidrug resistant protein (MDR; p-glycoprotein). The over-expression ratio (level of MDR in resistant cell line over level of MDR in the parental cell line) is 8 fold with a 10 fold increase in pgp function. Pgp surface expression was measured by flow cytometry with the MRK16 antibody and Pgp function with the generic substrate, Rh123.
# (§4) WST-1 is a water-soluble tetrazolium salt that can be used for cell proliferation or cell viability assays. The rate of WST-1 cleavage by mitochondrial dehydrogenases correlates with the number of viable cells in the culture. WST-1 is added directly to the cells ( 1/10th of the culture volume) and absorbance at 450 nm can be measured using an ELISA plate reader following a short incubation at 37° C.
# Pgp, MRP-1 or BCRP [4] = test: Resistance Ratios in three pairs of parental and resistant cell lines; assay type: cell-based, human; details: IC50 resistant / IC50 parental; HL60-HL60VCR, HL60-HL60ADR, 8226-8226/MR20
# Method: The Resistance Ratios were calculated as IC50 of the resistant cell line/IC50 of the parental cell line.
# Pgp, MRP-1 or BCRP [5] = test: Resistance Modifying Factors in three pairs of parental and resistant cell lines; assay type: cell-based, human; details: IC50 resistant without modulator / with modulator
# Method: The Resistance Modifying Factors were calculated as IC50 of the resistant cell line in the absence of modulator/IC50 of the resistant cell line in the presence of modulator.
# [6] = system: K562-K562/DOX cells (Pgp negative and Pgp positive); test: Drug accumulation assay, amonafide retention in K562 and K562/DOX; assay type: cell-based, human
# Method: Functional expression analyses of Pgp were performed on a BD FACSCalibur flow cytometer (Franklin Lakes, N.J.). […] Data analysis was performed using the Dako Cytomation Summit software, version 4.0 (Fort Collins, Colo.). […] Differential Pgp staining of anti-Pgp treated cells was compared to that of control cells counted with the same number of gated events. All test samples were compared to their respective controls using Kolmogorov-Smirnov (KS) non-parametric statistics and expressed as D-values ranging from 0 to 1. These analyses were performed using the NCSS 2007 software (Kaysville, Utah). This approach addresses the maximum difference between two empirical distribution functions.
# [7] = system: HL60 cells (Pgp negative); test: Drug accumulation assay, HL60; assay type: cell-based, human; details: HL60, increasing concentrations of amonafide
# Method: (§5) Functional expression analyses of Pgp were performed on a BD FACSCalibur flow cytometer (Franklin Lakes, N.J.). […] Data analysis was performed using the Dako Cytomation Summit software, version 4.0 (Fort Collins, Colo.).
# [8] = system: HL60/VCR cells (Pgp positive); test: Drug accumulation assay, HL60/VCR; assay type: cell-based, human
# Method: as §5
# [9] = system: HL60/ADR cells (MRP-1 positive); test: Drug accumulation assay, HL60/ADR; assay type: cell-based, human
# Method: Following uptake, the cells were washed with PBS and resuspended in fresh medium. An aliquot of cells from each sample was placed on ice for quantitation of baseline drug uptake. The remaining cells were incubated further and then resuspended in chilled fresh medium, and placed on ice for immediate flow cytometric analysis.
# Functional expression analyses of MRP-1 were performed on a BD FACSCalibur flow cytometer (Franklin Lakes, N.J.). Cellular amonafide content was measured on the Cytopeia Influx flow cytometer (Seattle, Wash.). Data analysis was performed using the Dako Cytomation Summit software, version 4.0 (Fort Collins, Colo.).
# [10] = system: 8226/MR20 cells (BCRP positive); test: Drug accumulation assay, 8226/MR20; assay type: cell-based, human; details: 8226/MR20 ± FTC
# Method: Functional expression analyses of BCRP were performed on a BD FACSCalibur flow cytometer (Franklin Lakes, N.J.). […] Data analysis was performed using the Dako Cytomation Summit software, version 4.0 (Fort Collins, Colo.).
# [11] = system: pretreatment secondary AML patient cells; test: Amonafide and daunorubicin efflux in cryopreserved cells of patients treated with amonafide+cytarabine; assay type: cell-based, human; details: cells from 15 patients treated with amonafide+cytarabine
# Method: Cryopreserved cells were tested for viability and samples with viabilities less than 40% were considered inevaluable and discarded.
# To measure drug uptake, the substrates were incubated with cells in medium containing each drug alone, or in combination with the modulator at the desired final concentrations. Cells were then washed and resuspended in PBS, and placed on ice. Drug-associated fluorescence was measured by flow cytometry using a FacScan flow cytometer (Becton Dickinson Immunocytometry Systems, San Jose, Calif.) equipped in standard fashion with an Argon laser for 488 nm excitation and a 585/42 band-pass filter (FL2) or a 670 long-pass (FL3) filter for emission collection. Data were analyzed with WinList software (Verity Software House, Topsham, Me.).
# [12] = system: P388 (murine leukemia) cell lines and a P388 cell line selected for resistance to doxorubicin; details: MTT
# Text: The P388 resistant cell line has been characterized with over-expression of the multidrug resistant protein (MDR; p-glycoprotein).
# MTT [3-(4,5-dimethylthiazol-2-yl)-2,5-diphenyltetrazolium bromide] assay, first described by Mosmann in 1983, is based on the ability of a mitochondrial dehydrogenase enzyme from viable cells to cleave the tetrazolium rings of the pale yellow MTT and form a dark blue formazan crystals which is largely impermeable to cell membranes, thus resulting in its accumulation within healthy cells. Solubilization of the cells by the addition of a detergent results in the liberation of the crystals which are solubilized. The number of surviving cells is directly proportional to the level of the formazan product created. The color can then be quantified using a simple colorimetric assay. The results can be read on a multiwell scanning spectrophotometer (ELISA reader).
# [13] = system: MCF7 (human breast cancer) cell lines and a MCF7 cell line selected for resistance to doxorubicin; details: clonogenic
# Method: The MCF7 resistant cell line has been characterized with over-expression of the multidrug resistant protein (MDR; p-glycoprotein).
# In the clonogenic assay cells are treated in vitro and then suspended in a soft agar/cell media mixture. The cells are allowed to grow in definable and distinct clumps of cells, referred to as clones, based upon the survival of the cells originally treated. After a defined time span the number of clones is then counted by microscope.
# Caco-2 cell monolayers [14] = details: human, Caco-2, 120 min, 5 μM
# Method: (§6) Caco-2 cell permeability studies were performed using Caco-2 cell monolayers grown on microporous membranes in multiwell insert systems. […] The samples were analyzed using LC/MS detection. […] This is the slope of the basolateral concentration versus time curve divided by the concentration of compound in the apical dosing chamber and the total area of the Caco-2 cell monolayer.
# Pgp [15] = target: T1, Pgp (Homo sapiens, UniProt P08183)
# T1 sequence (P08183 whole entry): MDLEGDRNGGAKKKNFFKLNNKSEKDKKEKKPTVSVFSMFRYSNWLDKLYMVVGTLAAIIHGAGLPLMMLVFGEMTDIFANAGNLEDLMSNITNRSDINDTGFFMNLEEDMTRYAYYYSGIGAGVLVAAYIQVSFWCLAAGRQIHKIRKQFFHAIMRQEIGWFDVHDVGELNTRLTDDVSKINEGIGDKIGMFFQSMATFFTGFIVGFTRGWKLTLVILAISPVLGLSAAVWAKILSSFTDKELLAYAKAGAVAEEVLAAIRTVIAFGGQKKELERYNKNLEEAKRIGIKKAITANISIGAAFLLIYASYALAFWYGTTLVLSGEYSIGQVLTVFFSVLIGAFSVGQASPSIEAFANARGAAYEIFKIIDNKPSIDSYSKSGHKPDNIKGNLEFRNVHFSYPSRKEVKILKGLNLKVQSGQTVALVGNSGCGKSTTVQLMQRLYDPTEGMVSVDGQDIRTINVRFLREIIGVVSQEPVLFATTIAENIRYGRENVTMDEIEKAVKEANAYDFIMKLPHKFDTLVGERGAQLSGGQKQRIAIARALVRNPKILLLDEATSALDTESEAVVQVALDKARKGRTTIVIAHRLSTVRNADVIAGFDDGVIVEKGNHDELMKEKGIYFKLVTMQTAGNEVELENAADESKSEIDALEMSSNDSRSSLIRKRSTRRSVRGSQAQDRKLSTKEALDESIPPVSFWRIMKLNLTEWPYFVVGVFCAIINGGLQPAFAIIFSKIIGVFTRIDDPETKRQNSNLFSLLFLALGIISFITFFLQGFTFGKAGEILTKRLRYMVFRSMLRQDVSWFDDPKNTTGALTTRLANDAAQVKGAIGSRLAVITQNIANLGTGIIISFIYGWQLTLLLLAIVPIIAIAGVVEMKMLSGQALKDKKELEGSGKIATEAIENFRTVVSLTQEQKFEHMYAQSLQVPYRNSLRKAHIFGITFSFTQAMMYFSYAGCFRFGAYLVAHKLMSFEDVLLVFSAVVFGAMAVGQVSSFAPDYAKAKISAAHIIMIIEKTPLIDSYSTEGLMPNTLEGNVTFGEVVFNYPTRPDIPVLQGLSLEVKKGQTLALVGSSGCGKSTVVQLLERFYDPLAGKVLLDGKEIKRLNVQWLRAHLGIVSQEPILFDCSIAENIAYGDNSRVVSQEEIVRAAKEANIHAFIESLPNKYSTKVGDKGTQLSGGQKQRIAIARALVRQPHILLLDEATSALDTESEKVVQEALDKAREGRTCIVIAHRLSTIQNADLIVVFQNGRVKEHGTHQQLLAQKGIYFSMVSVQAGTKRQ
# Text: (§7) Both the Caco-2 and MDR1-MDCK cells were used for this model.
# Pgp [16] = target: T1, Pgp; details: digoxin + test compound
# Text: (§8) MDR1-MDCK are Madin Darby Canine Kidney cells transfected with the human multi-drug resistance gene. Confluent monolayers made from these cells can be used to access a test compound's potential role as a P-gp substrate. The assay set up is similar to the CaCo-2 assay.
# as §7
# [17] = system: IGROV1-T8, a cell line selected for resistance to topotecan (increased BCRP expression); test: cells; details: Homo sapiens
# Method: as §1, §2
# P-gp [18] = test: in vitro; details: human
# Method: as §6
# P-gp [19] = test: in vitro; details: human, MDCK-MDR1, efflux/influx ratio, Drug alone
# Method: as §8
# (§9) The samples were analyzed using LC/MS detection.
# Caco-2 cell monolayers [20] = test: Caco-2 cell monolayer permeability
# Method: as §6
# [21] = system: HL60/VCR (HL60/MDR), a cell line selected for resistance to vincristine; test: WST-1 cell proliferation assay, HL60/VCR
# Method: as §3, §4
# [22] = system: HL60/ADR, a cell line selected for resistance to adriamycin (MRP-1); test: WST-1 cell proliferation assay, HL60/ADR
# Method: The HL60/ADR resistant cell line has been characterized with over-expression of the multidrug resistant protein (MRP-1).
# as §4
# [23] = system: 8226/MR20, a cell line selected for resistance to mitoxantrone (BCRP); test: WST-1 cell proliferation assay, 8226/MR20
# Method: The 8226/MR20 resistant cell line has been characterized with over-expression of the multidrug resistant protein (BCRP).
# BCRP surface expression was measured by flow cytometry with the BXP21 antibody.
# as §4
# Method for MDR1-MDCK cells (P-gp): as §8, §9
compound,measurement,setting,value
"CN(C)CCN1C(=O)c2cccc3cc(N)cc(c23)C1=O [Amonafide, amonafide]",potency in resistant vs non-resistant cell line,[1],equipotent in both cell lines
same,IC50,"[2]; IGROV-1, IGROV1, average, read-out: IC50 (average)",2.93 µM
same,IC50,"[2]; IGROV-1, IGROV1, experiment (1), read-out: IC50",2.54 µM
same,IC50,"[2]; IGROV-1, IGROV1, experiment (2), read-out: IC50",3.73 µM
same,IC50,"[2]; IGROV-1, IGROV1, experiment (3), read-out: IC50",2.53 µM
same,IC50,[3],6.98 µM
same,substrate status from Resistance Ratios,"Pgp, MRP-1 or BCRP [4]","not a substrate for Pgp, MRP-1 or BCRP"
same,substrate status from Resistance Modifying Factors,"Pgp, MRP-1 or BCRP [5]","not a substrate for Pgp, MRP-1 or BCRP"
same,"Amonafide uptake and efflux, comparison of the two cell lines",[6]; K562 vs K562/DOX,not significantly different between the two cell lines
same,amonafide content in presence of Pgp inhibitor PKC412,[6]; each cell line ± PKC412,did not significantly change
same,amonafide accumulation,[7],increases with increasing amonafide dose
same,Amonafide uptake and efflux in presence of Pgp inhibitor PSC833,[8],did not significantly change
same,Amonafide uptake and efflux in presence of MRP-1 inhibitor MK571,[9],did not significantly change
same,Amonafide uptake and efflux in presence of BCRP inhibitor FTC,[10],did not significantly change
same,drug efflux in relation to clinical response (CR vs non-CR),[11],no significant difference
same,potency in resistant vs non-resistant cell line,[12],equipotent in both cell lines
same,potency in resistant vs non-resistant cell line,[13],equipotent in both cell lines
same,"efflux/influx ratio, Caco-2, Drug alone",Caco-2 cell monolayers [14],0.9
same,"efflux/influx ratio, MDR1-MDCK, +CSA",MDR1-MDCK cells (P-gp); +CSA,1.2 ± 0.8
same,"efflux/influx ratio, MDR1-MDCK, Drug alone",MDR1-MDCK cells (P-gp); Drug alone,2.2
same,effect of addition of CSA on efflux,MDR1-MDCK cells (P-gp); MDR1-MDCK,did not have any effect
same,Pgp substrate / inhibitor status (conclusion),MDR1-MDCK cells (P-gp); conclusion from Caco-2 and MDR1-MDCK studies,neither a substrate nor an inhibitor of Pgp
same,effect on digoxin efflux,Pgp [15]; Caco-2,no effect
same,"% Inhib. of control, digoxin efflux, Caco-2",Pgp [15]; digoxin + test compound,0%
same,"% Inhib. of control, digoxin efflux, MDR1-MDCK",Pgp [16],10%
same,IC50,"[17]; T8, experiment (1)",5.18 µM
same,IC50,"[17]; T8, experiment (2)",4.87 µM
same,IC50,"[17]; T8, experiment (3)",5.83 µM
same,IC50,"[17]; read-out: IC50 (average), T8, average",5.29 µM
same,"Papp B→A at 120 min, 5 μM",P-gp [18]; Caco-2,26.8 ×10⁻⁶ cm/s
same,"efflux ratio at 120 min, 5 μM","P-gp [18]; Caco-2, efflux/influx ratio, Caco-2, +CSA",1.1 ± 0.4
same,"efflux ratio at 120 min, 5 μM","P-gp [18]; Caco-2, efflux/influx ratio, Caco-2, Drug alone",0.9 ± 0.2
same,"efflux ratio at 120 min, 5 μM","P-gp [18]; Caco-2, ratio of Papp(B-A)/Papp(A-B)",1
same,"efflux ratio at 120 min, 5 μM",P-gp [19],2.2 ± 0.8
same,effect of addition of CSA on efflux,Caco-2 cell monolayers [20]; Caco-2,did not have any effect
same,efflux classification,Caco-2 cell monolayers [20]; high efflux if ratio ≧3.0 and Papp(B-A) ≧1.0×10^−6 cm/s,not having significant efflux
same,Fold Change in IC50,[21]; HL60/MDR vs HL60,0.29
same,cytotoxicity in presence of Pgp inhibitor PSC833,[21]; HL60/VCR ± PSC833,unaffected
same,potency in both cell lines,[21]; HL60 vs HL60/VCR,equipotent in both cell lines
same,IC50,"[21]; Homo sapiens, HL60/VCR, read-out: IC50 HL60/MDR",2.04 µM
same,cytotoxicity in presence of MRP1 inhibitor MK571,[22]; HL60/ADR ± MK571,unaffected
same,potency in both cell lines,[22]; HL60 vs HL60/ADR,equipotent in both cell lines
same,cytotoxicity in presence of BCRP inhibitor Fumitremorgin C,[23]; 8226/MR20 ± Fumitremorgin C,unaffected
same,potency in both cell lines,[23]; 8226 vs 8226/MR20,equipotent in both cell lines
